Where “and” joins values, the source holds several entries; their conditions need not be identical. Identical values can stand only once. Toxic doses and inconclusive results are not listed. Rule for the calls: active = survival T/C of 150% or more; inactive = T/C below 125% in these data.
System: B6C3F1 mice, ip Sarcoma M5076, median survival T/C
Experiment: NCI In Vivo Anticancer Drug Screen. Data for tumor model Sarcoma M5076 (intraperitoneal) in B6C3F1 mice
Conditions: endpoint: median survival time, schedule: Q04DX004 (ip), higher = longer survival
Method in brief: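 Tumour cells were transplanted into mice, compound or vehicle was given, survival of both groups was followed, and the treated figure was expressed over the control figure.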

Measured: T/C

NC(=O)C1=NOC(C(N)=O)C1C1OC(CO)C(O)C1O (configuration not stated)
inactive: dose: 37.5 mg/kg/injection, vehicle: water 100 % of control | dose: 75.0 mg/kg/injection, vehicle: water 98 % of control | dose: 150.0 mg/kg/injection, vehicle: water 103 % of control | dose: 300.0 mg/kg/injection, vehicle: water 106 % of control | dose: 600.0 mg/kg/injection, vehicle: water 100 % of control

NCCNCC(O)CO (configuration not stated)
inactive: dose: 50.0 mg/kg/injection, vehicle: saline 99 % of control | dose: 100.0 mg/kg/injection, vehicle: saline 103 % of control | dose: 200.0 mg/kg/injection, vehicle: saline 103 % of control | dose: 400.0 mg/kg/injection, vehicle: saline 99 % of control | dose: 800.0 mg/kg/injection, vehicle: saline 95 % of control

COc1cc2c(c(OC)c1OC)-c1ccc(SC)c(=O)cc1[C@@H](NC(C)=O)CC2
inactive: dose: 0.03 mg/kg/injection, vehicle: Klucel (hydroxypropylcellulose) (HPC) 102 % of control | dose: 0.05 mg/kg/injection, vehicle: Klucel (hydroxypropylcellulose) (HPC) 106 % of control | dose: 0.1 mg/kg/injection, vehicle: Klucel (hydroxypropylcellulose) (HPC) 104 % of control and 113 % of control | dose: 0.14 mg/kg/injection, vehicle: Klucel (hydroxypropylcellulose) (HPC) 114 % of control | dose: 0.19 mg/kg/injection, vehicle: Klucel (hydroxypropylcellulose) (HPC) 112 % of control | dose: 0.23 mg/kg/injection, vehicle: Klucel (hydroxypropylcellulose) (HPC) 116 % of control | dose: 0.45 mg/kg/injection, vehicle: Klucel (hydroxypropylcellulose) (HPC) 103 % of control
